Results: patent US20220125876A1, “A METHOD OF IMMUNE MODULATION BY MODULATING ABCF1” (Pacific Myco Biosciences, Ltd., priority 2019, published 2022)
Entries after “also recorded” stand apart in the source; their conditions may differ.

Tests used:
ABCF1 [1] = experiment: Polyubiquitination state of ABCF1 in BMDM (immunoprecipitation with anti-ABCF1, immunoblot with anti-polyubiquitin antibodies); assay type: cell-based, mouse
[2] = system: bone marrow derived macrophages (BMDM); experiment: Immunoblotting of BMDM lysates for protein expression and phosphorylation; assay type: cell-based, mouse
Description: (§1) Western blotting: Cell lysates were prepared as described above. All co-immunoprecipitation samples were prepared without DTT in the sample buffer, unless otherwise mentioned. All other western blot samples were prepared with DTT in the sample buffer. Lysates were electrophoresed and immunoblotted with indicated antibodies.
Cytoplasmic and Nuclear fractionation: Bone marrow macrophages were stimulated with mentioned treatments and cytoplasmic and nuclear fractionation was performed with NE-PER Nuclear and Cytoplasmic Extraction Reagents (Thermo Scientific; 78833) according to manufacturer's instructions.
as §1, with “Cell” for “Western blotting: Cell”
Bone marrow macrophages were stimulated with indicated treatments and cytoplasmic and nuclear fractionation was performed with NE-PER Nuclear and Cytoplasmic Extraction Reagents (Thermo Scientific; 78833) according to manufacturer's instructions.

ABCF1 [3] = conditions: cited from earlier work
ubiquitin = molecular target: T1, ubiquitin (Homo sapiens, UniProt P0CG48); experiment: In vitro ubiquitination assay; assay type: biochemical, mouse; conditions: with UBA1 (E1), Mg2+ and ATP, DTT sensitive
T1 construct: recombinant ABCF1, UBA1, and Ub proteins were incubated in the presence of cofactors; purchased abcam ab139467; host or cells: ubiquitin and E1 from the kit; ABCF1 immunoprecipitated from transfected mouse BMDM
Description: In vitro ubiquitination Assay: Abcf1WT and Abcf1C647S expression plasmids were overexpressed in macrophages as described above. Before overexpressing Abcf1C647S expression plasmid, cells were treated with Abcf1 siRNA, as described above to eliminate endogenous Abcf1 levels. Abcf1 siRNA treated cells were washed with cold PBS twice and then Abcf1C647S expression plasmid was overexpressed. Cell lysates were prepared and subjected to co-immunoprecipitation with anti ABCF1 antibody. Extend of overexpression and co-immunoprecipitation was checked by western blot. Ubiquitination Assay was performed on immunoprecipitated samples with Ubiquitylation Assay Kit (abcam; ab139467) according to manufacturer's instructions. Samples were run on a gel and blotted with anti ABCF1 and anti UB antibodies.
To confirm the finding, enzyme activity of ABCF1 was investigated in presence and absence of cofactor Mg^2+ and ATP via an in vitro ubiquitination assay. […] As thio-ester bonds mediate ubiquitin attachment to the E2 enzyme and are DTT sensitive, no such protein band was observed when samples were treated with DTT.
To confirm if the conserved cysteine at position 647 in the ABCF1 sequence is the catalytic cysteine that mediates the E2 function, in vitro ubiquitination assay was performed with Abcf1 WT and Abcf1 C647S (where the cysteine was mutated to a serine) protein constructs. […]

[4] = LPS (100 ng/ml) 30 min, SM 100 nM, Dynasore 80 μM
[5] = BMDMs treated with recombinant cytokine for 24 hours (TNFα 10 ng/ml, IL-1β 10 ng/ml, IL-10 50 ng/ml, IFNβ 10,000 IU/50 μl)
[6] = induction of hypoxia, CoCl2 100 μM for 24 hours

CN[C@@H](C)C(=O)N[C@H](C(=O)N1CCC[C@H]1Cn1nnnc1Sc1ccccc1)C(C)OCC#CC#CCO[C@H](C)[C@H](NC(=O)[C@H](C)NC)C(=O)N1CCCC1Cn1nnnc1Sc1ccccc1 (stereo partly shown) [SM]
K63-polyubiquitination of ABCF1 (ABCF1 [1]; [4]): increased | polyubiquitin linkage of ABCF1 (ABCF1 [1]; LPS treatment for 10 minutes): K63-polyubiquitination of ABCF1 instead

TNFα
ABCF1 expression [2, 5]: decreased

CN(C)CCC[C@@]1(c2ccc(F)cc2)OCc2cc(C#N)ccc21 [Escitalopram]
effect on ABCF1 pathway (ABCF1 [3]): known enhancer of the ABCF1 pathway

[Cl][Co][Cl] [CoCl2, Cobalt Chloride]
ABCF1 expression [2, 6]: decreased | HIF-1α expression [2, 6]: increased

O=C(N/N=C/c1ccc(O)c(O)c1)c1cc2ccccc2cc1O [Dynasore]
polyubiquitin linkage of ABCF1 (ABCF1 [1]; Dynasore treatment alone): led to K48-polyubiquitination | K48-polyubiquitination of ABCF1 (ABCF1 [1]; [4]): targeted for K48-polyubiquitination; also recorded: extensively upregulated | K63-polyubiquitination of ABCF1 (ABCF1 [1]; [4]): no K63-polyubiquitination was observed; also recorded: greatly reduced

recombinant ABCF1: recombinant ABCF1 protein used in the in vitro ubiquitination assay
mass / apparent molecular weight shift of ABCF1 (Ub thioester attachment) (ubiquitin): increase in mass size; also recorded: increase in the apparent molecular weight

B1: IL-10: recombinant IL-10 (50 ng/ml) used to treat BMDMs (protein, UniProt P18893 19-178, looked up)
Interleukin-10: SRGQYSREDNNCTHFPVGQSHMLLELRTAFSQVKTFFQTKDQLDNILLTDSLMQDFKGYLGCQALSEMIQFYLVEVMPQAEKHGPEIKEHLNSLGEKLKTLRMRLRRCHRFLPCENKSKAVEQVKSDFNKLQDQGVYKAMNEFDIFINCIEAYMMIKMKS
ABCF1 expression [2, 5]: increased

B2: IL-1β: recombinant IL-1β (10 ng/ml) used to treat BMDMs (protein, UniProt P10749 118-269, looked up)
Interleukin-1 beta: VPIRQLHYRLRDEQQKSLVLSDPYELKALHLNGQNINQQVIFSMSFVQGEPSNDKIPVALGLKGKNLYLSCVMKDGTPTLQLESVDPKQYPKKKMEKRFVFNKIEVKSKVEFESAEFPNWYISTSQAEHKPVFLGNNSGQDIIDFTMESVSS
ABCF1 expression [2, 5]: decreased

B3: IFNβ: recombinant IFNβ (10,000 IU/50 μl) used to treat BMDMs (protein, UniProt P01575 22-182, looked up)
Interferon beta: INYKQLQLQERTNIRKCQELLEQLNGKINLTYRADFKIPMEMTEKMQKSYTAFAIQEMLQNVFLVFRNNFSSTGWNETIVVRLLDELHQQTVFLKTVLEEKQEERLTWEMSSTALHLKSYYWRVQRYLKLMKYNSYAWMVVRAEIFRNFLIIRRLTRNFQN
ABCF1 expression [2, 5]: increased
